Measurements as given in patent US20240316129A1, “Bacteria and Herbal Extract Nutraceutical Blends for Lung Health Maintenance” (The UAB Research Foundation, priority 2021, published 2024).

How the values were obtained:
[1] = tested on: newborn wild type C57BL/6 mice; assay: Loss of function of Ac-PGP by RTR treatment in LPS-treated newborn mice; type: in vivo, mouse; conditions: under noxious stimuli, LPS+RTR compared to LPS alone, P<0.05
From the text: FIG. 9A illustrates that newborn wild type C57BL/6 mice were randomized to treatment with RTR, LPS, and RTR+LPS as well as normoxia and noxious stimuli.

RSB12 = assay: Culture growth of probiotic strain RSB12 with herbal extracts or Vitamin D; type: cell-based, Lactobacillus acidophilus; conditions: number of colonies per plate
RSB11 = assay: Culture growth of probiotic strain RSB11 with herbal extracts or Vitamin D; type: cell-based, Lactobacillus plantarum; conditions: number of colonies per plate
RSB13 = assay: Culture growth of probiotic strain RSB13 with herbal extracts or Vitamin D; type: cell-based, Lactobacillus rhamnosus; conditions: number of colonies per plate
mice = conditions: normoxia and under noxious stimuli, P<0.05
C57BL/6 mouse pups = assay: In vivo (mouse) dysbiosis model of chronic lung disease, LPS-treated pups
[2] = LPS-treated mice compared to controls, P<0.05

arginine-threonine-arginine [RTR] was tested, and the MPO concentrations [1] was “significantly lower”, the RAC [1] was “significantly higher” and the RVH [1] was “significantly less severe”.
For Vitamin D, the “culture growth of RSB12” value (RSB12) was “do not have an inhibitory effect”, the “culture growth of RSB11” value (RSB11) was “do not have an inhibitory effect” and the “culture growth of RSB13” value (RSB13) was “do not have an inhibitory effect”.
“N-acetyl-Proline-Glycine-Proline [Ac-PGP]” was tested, and the MPO concentration (mice; ELISA) was “increased”, the “NE concentrations in BALF” value (mice) was “increased” and the RAC counts (mice) was “decreased”. The “right ventricular hypertrophy (RVH)” value (mice) was “increased”.
For lipopolysaccharide [LPS], the lung tissue histology (C57BL/6 mouse pups; LPS-treated C57BL/6 mouse pups) was “alveolar hypoplasia and simplification”, the “myeloperoxidase (MPO) levels in BALF” value (C57BL/6 mouse pups; [2]) was “significantly increased” and the “neutrophil elastase (NE) levels in BALF” value (C57BL/6 mouse pups; [2]) was “significantly increased”. The “radial alveolar counts (RAC)” value (C57BL/6 mouse pups; [2]) was “significantly decreased” and the “Ac-PGP levels in BALF” value (C57BL/6 mouse pups; LPS-treated mice compared to controls, by HPLC, P<0.05) was “significantly increased”.
